Reference: a compilation of properties of binary mixtures (doi:10.1016/j.molliq.2015.01.031)

Experiment: xn = mol fraction of the nth substance listed
Conditions: 101 kPa

OCCCO + CCCC[n+]1ccn(C)c1.F[B-](F)(F)F
speed of sound [m/s]
Conditions | x1 = 0.1026 | x1 = 0.2072 | x1 = 0.3172 | x1 = 0.3943 | x1 = 0.503 | x1 = 0.6011 | x1 = 0.7009 | x1 = 0.8006 | x1 = 0.8979 | x1 = 1
298.15 K | 1564.2 | 1563.5 | 1565.2 | – | 1574.2 | 1580.8 | 1590 | – | 1612.8 | 1628.8
303.15 K | – | 1551.8 | 1553.4 | 1557.4 | 1562.4 | 1569 | 1578.2 | 1589.4 | 1601.1 | 1617.6
308.15 K | 1540.8 | 1539.9 | 1541.5 | 1545.5 | 1550.6 | 1557.2 | 1566.5 | 1577.8 | – | 1606.2
313.15 K | 1529.1 | 1528.2 | – | – | – | 1545.5 | 1554.8 | 1566.2 | 1578.1 | 1594.8
318.15 K | 1517.6 | 1516.6 | 1518.1 | 1522.1 | 1527.1 | – | – | 1554.6 | 1566.6 | 1583.5
323.15 K | 1506.2 | 1505.1 | 1506.5 | – | 1515.5 | 1522.2 | 1531.6 | 1543.1 | – | 1572.1

CCCC[n+]1ccn(C)c1.F[B-](F)(F)F + CC(O)CO
x2 = 0
Conditions | speed of sound [m/s]
303.15 K | 1552.9
318.15 K | 1518
323.15 K | 1506.6

CC(O)CO (stereo unspecified) + CCCC[n+]1ccn(C)c1.F[B-](F)(F)F
speed of sound [m/s]
Conditions | x1 = 0.1182 | x1 = 0.2003 | x1 = 0.3122 | x1 = 0.4189 | x1 = 0.5064 | x1 = 0.6165 | x1 = 0.695 | x1 = 0.797 | x1 = 0.8966 | x1 = 1
298.15 K | – | – | – | 1545.8 | 1541.1 | 1535.1 | 1530.5 | 1524.7 | 1518.5 | 1511
303.15 K | 1548.1 | 1544.1 | 1538.9 | – | 1529 | 1522.8 | – | 1511.8 | 1505.3 | 1497.2
308.15 K | – | 1532.3 | – | 1521.8 | 1516.9 | 1510.4 | 1505.3 | 1498.8 | 1491.8 | 1483.1
313.15 K | 1524.6 | 1520.6 | 1515.2 | 1509.8 | 1504.7 | – | 1492.6 | 1485.7 | – | 1469
318.15 K | 1513 | 1509 | – | 1497.9 | 1492.5 | 1485.5 | 1480 | 1472.7 | – | 1454.9
323.15 K | 1501.6 | 1497.4 | 1491.8 | 1486.1 | 1480.5 | – | 1467.3 | 1459.6 | 1451.4 | 1440.7

CCCC[n+]1ccn(C)c1.F[B-](F)(F)F + OCCCO
x2 = 0
Conditions | speed of sound [m/s]
298.15 K | 1565.1
303.15 K | 1553.2
308.15 K | 1541.3
313.15 K | 1529.7
318.15 K | 1518.2
323.15 K | 1506.8
